Tests used:
MV-4-11 cell = test: Cell proliferation assay (Cell Titer-Glo); assay type: cell-based; conditions: inhibition of MV-4-11 cell proliferation, Cell Titer-Glo on day 4
Procedure: MV 411 cells (20000 cells/well) were inoculated and cultured in 96 (Corning #3916) well plates, and the medium was 80 μL/well (IMDM with 10% fetal bovine serum (FBS), Gibco #10099-141C). After 24 hours of incubation, 20 μL of the compounds of the present invention configured to different concentrations (DMSO final concentration of 0.1% (V/V)) were added. On day 4, 60 μL of Cell Titer-Glo (Promega #G7558) was added to each well and mixed at 80 rpm, 25° C., 15 min, and the fluorescence values were detected by Victor X5 (PE).

SHP-2 enzyme = biological target: T1, SHP-2 enzyme (Homo sapiens, UniProt Q06124); test: Phosphatase activity assay (Homogeneous Full Length SHP-2 Assay Kit, DiFMUP substrate); assay type: biochemical; conditions: full length SHP-2 activated with 0.5 μM SHP-2 activating Peptide; 1 hour co-incubation; DiFMUP 50 μM, 30 min
T1 construct: Homogeneous Full Length SHP-2 Assay Kit (BPS Bioscience #79330); purchased BPS Bioscience 79330
T1 sequence (Q06124 1-593): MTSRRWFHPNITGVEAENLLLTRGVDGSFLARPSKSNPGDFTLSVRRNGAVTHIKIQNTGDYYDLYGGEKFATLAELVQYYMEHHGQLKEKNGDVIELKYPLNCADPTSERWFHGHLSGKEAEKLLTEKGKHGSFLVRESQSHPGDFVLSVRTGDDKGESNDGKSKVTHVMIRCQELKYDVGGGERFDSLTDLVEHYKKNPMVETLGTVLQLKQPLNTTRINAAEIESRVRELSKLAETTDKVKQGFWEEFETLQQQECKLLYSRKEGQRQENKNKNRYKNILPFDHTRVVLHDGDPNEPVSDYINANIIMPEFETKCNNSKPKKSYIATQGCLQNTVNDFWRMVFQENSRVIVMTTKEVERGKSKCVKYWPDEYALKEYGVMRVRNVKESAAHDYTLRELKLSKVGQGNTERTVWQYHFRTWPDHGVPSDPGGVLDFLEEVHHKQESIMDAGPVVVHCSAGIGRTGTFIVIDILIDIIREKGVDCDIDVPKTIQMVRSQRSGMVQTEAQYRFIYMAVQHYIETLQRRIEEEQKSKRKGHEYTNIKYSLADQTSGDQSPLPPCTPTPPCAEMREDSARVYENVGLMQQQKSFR
Procedure: IC50 values were assayed using Homogeneous Full Length SHP-2 Assay Kit (BPS Bioscience #79330), which uses 6,8-difluoro-4-methylumbelliferone phosphate (DiFMUP) as the reaction substrate. SHP2 enzyme solution (diluted to 0.04 ng/μL with 1*buffer) was mixed with 0.5 μM SHP-2 activating Peptide in a 1*buffer solution containing 2.5 mM DTT to activate PTP. At the same time, DMSO (0.1% (V/V)) or the compounds (concentration: 0.5 nM to 1 μM) were added, mixed and co-incubated for 1 hour. DiFMUP (50 μM, total reaction system volume of 20 μL) was added, and the reaction was started. After 30 min of incubation, the fluorescence intensity of the reaction system (excitation wavelength: 350 nm, emission wavelength: 460 nm) was measured by Tecan Infinite M1000.

| SMILES | IC50 (MV-4-11 cell; Homo sapiens, MV4-11, 96 h) [nM] | IC50 (SHP-2 enzyme) [nM] | IC50 (MV-4-11 cell) [nM] |
| --- | --- | --- | --- |
| Nc1ccc2c(n1)CCN2C(=O)c1nc(C2CC2)c(N2CCC3(CC2)Cc2ccccc2C3N)nc1N (stereo not drawn) [Compound 106] | 164 | 15 |  |
| Nc1nc(N2CCC3(CC2)Cc2ccccc2C3N)c(Cl)nc1C(=O)N1CCCn2ncc(Cl)c21 (stereo not drawn) [Compound 31] |  | 47 |  |
| Cc1ccc2c(c1)C(N)C1(CCN(c3cnc(C(=O)N4Cc5sc(N)nc5C(C)(C)C4)c(N)n3)CC1)C2 (stereo not drawn) [Compound 102] | 57 | 11 |  |
| Nc1nc2c(s1)CN(C(=O)c1nc(F)c(N3CCC4(CC3)Cc3ccccc3C4N)nc1N)CC2(F)F (stereo not drawn) [Compound 115] | 4 | 4 |  |
| Nc1ccc2c(n1)CCN2C(=O)c1ncc(N2CCC3(CC2)Cc2ccncc2C3N)nc1N (stereo not drawn) [Compound 97] |  | 10 |  |
| [2H]C1([2H])CN(C(=O)c2ncc(N3CCC4(CC3)Cc3ccc(OC)cc3C4N)nc2N)Cc2sc(N)nc21 (stereo not drawn) [Compound 122] |  | 8 | 25 |
| Nc1nc(N2CCC3(CC2)Cc2ccccc2C3N)cnc1C(=O)N1CCCc2n[nH]cc21 (stereo not drawn) [Compound 67] | 79 | 7 |  |
| Nc1nc(N2CCC3(CC2)Cc2ccccc2C3N)cnc1C(=O)N1CCOc2cccnc21 (stereo not drawn) [Compound 6] |  | 83 |  |
| Nc1ccc2c(n1)CCN2C(=O)c1ncc(N2CCC3(CC2)Cc2cccc(F)c2C3N)nc1N (stereo not drawn) [Compound 90] |  | 24 |  |
| NC1c2ccccc2CC12CCN(c1cnc(C(=O)N3CCCn4nccc43)cn1)CC2 (stereo not drawn) [Compound 9] |  | 59 |  |
| Nc1nc2c(s1)CN(C(=O)c1ncc(N3CCC4(CC3)Cc3ccccc3C4N)nc1N)CC2 (stereo not drawn) [Compound 75] | 9 | 5 |  |
| CC1(C)CCN(C(=O)c2ncc(N3CCC4(CC3)Cc3ccccc3C4N)nc2N)c2ccnn21 (stereo not drawn) [Compound 87] | 159 | 9 |  |
| NC(=O)c1nc(C(=O)N2CCCn3nccc32)cnc1N1CCC2(CC1)Cc1ccccc1C2N (stereo not drawn) [Compound 23] |  | 22 |  |
| Nc1nc(N2CCC3(CC2)Cc2ccccc2C3N)cnc1C(=O)N1CCOc2ncccc21 (stereo not drawn) [Compound 11] |  | 24 |  |
| COc1ccc2c(c1)C(N)C1(CCN(c3cnc(C(=O)N4Cc5sc(N)nc5C(C)(C)C4)c(N)n3)CC1)C2 (stereo not drawn) [Compound 93] | 114 | 8 |  |
| Nc1nc(N2CCC3(CC2)Cc2cc(C(F)(F)F)ccc2C3N)cnc1C(=O)N1CCCn2nccc21 (stereo not drawn) [Compound 55] |  | 50 |  |
| Nc1nc(N2CCC3(CC2)Cc2ccccc2C3N)cnc1C(=O)N1CCCc2c(Cl)cccc21 (stereo not drawn) [Compound 14] |  | 22 |  |
| [2H]C1([2H])CN(C(=O)c2ncc(N3CCC4(CC3)Cc3ccc(C)cc3C4N)nc2N)Cc2sc(N)nc21 (stereo not drawn) [Compound 123] |  | 5 |  |
| Nc1nc(N2CCC3(CC2)Cc2ccccc2C3N)cnc1C(=O)N1CCc2ncncc21 (stereo not drawn) [Compound 51] |  | 35 |  |
| Nc1nc(N2CCC3(CC2)Cc2ccccc2C3N)cnc1C(=O)N1CCCc2cccnc21 (stereo not drawn) [Compound 12] |  | 49 |  |
| N#Cc1cccc2c1CCCN2C(=O)c1ncc(N2CCC3(CC2)Cc2ccccc2C3N)nc1N (stereo not drawn) [Compound 15] | 170 | 13 |  |
| Nc1nc2c(s1)CN(C(=O)c1cnc(N3CCC4(CC3)Cc3ccccc3C4N)c(CO)n1)CC2(F)F (stereo not drawn) [Compound 74] | 6 |  |  |
| Cc1ccc2c(c1)C(N)C1(CCN(c3cnc(C(=O)N4Cc5sc(N)nc5C(F)(F)C4)c(N)n3)CC1)C2 (stereo not drawn) [Compound 124] |  | 9 |  |
| Nc1nc(N2CCC3(CC2)Cc2cc(Cl)ccc2C3N)cnc1C(=O)N1CCc2ncccc21 (stereo not drawn) [Compound 53] | 192 | 4 |  |
| Cc1nc(C(=O)N2CCc3nc(N)ccc32)c(N)nc1N1CCC2(CC1)Cc1ccc(F)cc1C2N (stereo not drawn) [Compound 107] | 119 | 9 |  |
| Nc1nc(N2CCC3(CC2)Cc2cc(F)ccc2C3N)cnc1C(=O)N1CCc2ncccc21 (stereo not drawn) [Compound 21] | 107 | 3 |  |
| Nc1nc(N2CCC3(CC2)Cc2ccccc2C3N)c(F)nc1C(=O)N1CCCn2nccc21 (stereo not drawn) [Compound 49] | 241 | 8 |  |
| COc1ccc2c(c1)C(N)C1(CCN(c3cnc(C(=O)N4CCc5nc(N)ccc54)c(N)n3)CC1)C2 (stereo not drawn) [Compound 62] | 156 | 5 |  |

| SMILES | IC50 (MV-4-11 cell; Homo sapiens, MV4-11, 96 h) [nM] | IC50 (SHP-2 enzyme) [nM] | IC50 (MV-4-11 cell) [nM] |
| --- | --- | --- | --- |
| CC1(C)CN(C(=O)c2ncc(N3CCC4(CC3)Cc3ccc(F)cc3C4N)nc2N)Cc2sc(N)nc21 (stereo not drawn) [Compound 94] | 110 | 7 |  |
| Nc1nc(N2CCC3(CC2)Cc2ccccc2C3N)cnc1C(=O)N1CCc2ncccc21 (stereo not drawn) [Compound 7] | 95 | 6 |  |
| Nc1nc2c(s1)CN(C(=O)c1ncc(N3CCC4(CC3)Cc3ccccc3C4N)nc1N)CC2(F)F (stereo not drawn) [Compound 127] | 13 | 7 |  |
| Cc1nc(C(=O)N2Cc3sc(N)nc3C(C)C2)c(N)nc1N1CCC2(CC1)Cc1ccccc1C2N (stereo not drawn) [Compound 105] | 25 | 13 |  |
| Nc1nc(N2CCC3(CC2)Cc2ccccc2C3N)cnc1C(=O)N1CCc2scnc2C1 (stereo not drawn) [Compound 19] | 142 | 5 |  |
| Cn1cc(-c2ccc3c(n2)CCCN3C(=O)c2ncc(N3CCC4(CC3)Cc3ccccc3C4N)nc2N)cn1 (stereo not drawn) [Compound 33] | 285 | 29 |  |
| CC1(C)CN(C(=O)c2ncc(N3CCC4(CC3)Cc3ccccc3C4N)nc2N)Cc2sc(N)nc21 (stereo not drawn) [Compound 61] | 71 | 7 |  |
| Nc1nc(N2CCC3(CC2)Cc2ccccc2C3N)cnc1C(=O)N1CCc2nc(Cl)ccc21 (stereo not drawn) [Compound 52] | 196 | 4 |  |
| N#Cc1ccc2c(c1)C(N)C1(CCN(c3cnc(C(=O)N4CCCn5nccc54)c(N)n3)CC1)C2 (stereo not drawn) [Compound 34] | 56 | 6 |  |
| COc1ccc2c(c1)C(N)C1(CCN(c3cnc(C(=O)N4Cc5sc(N)nc5C(F)(F)C4)c(N)n3)CC1)C2 (stereo not drawn) [Compound 73] | 19 |  |  |
| Nc1nc(N2CCC3(CC2)Cc2ccccc2C3N)cnc1C(=O)N1Cc2cccnc2C1 (stereo not drawn) [Compound 20] |  | 17 |  |
| Nc1ccc2c(n1)CCCN2C(=O)c1ncc(N2CCC3(CC2)Cc2ccccc2C3N)nc1N (stereo not drawn) [Compound 98] |  | 26 |  |
| Nc1nc(N2CCC3(CC2)Cc2ccccc2C3N)c(Br)nc1C(=O)N1CCCn2ncc(Br)c21 (stereo not drawn) [Compound 29] |  | 43 |  |
| CC(C)(O)c1ccc2c(c1)C(N)C1(CCN(c3cnc(C(=O)N4CCCn5nccc54)c(N)n3)CC1)C2 (stereo not drawn) [Compound 56] |  | 21 |  |
| Cc1cc2n(n1)CCCN2C(=O)c1ncc(N2CCC3(CC2)Cc2ccccc2C3N)nc1N (stereo not drawn) [Compound 32] |  | 28 |  |
| CC1(C)Cc2nc(N)sc2CN1C(=O)c1ncc(N2CCC3(CC2)Cc2ccccc2C3N)nc1N (stereo not drawn) [Compound 121] |  | 9 |  |
| Nc1nc(N2CCC3(CC2)Cc2cc(Cl)ccc2C3N)cnc1C(=O)N1CCCn2nccc21 (stereo not drawn) [Compound 48] |  | 4 |  |
| Cc1nc(N2CCC3(CC2)Cc2ccccc2C3N)c(CO)nc1C(=O)N1CCCn2nccc21 (stereo not drawn) [Compound 43] |  | 60 |  |
| Nc1nc(N2CCC3(CC2)Cc2ncccc2C3N)cnc1C(=O)N1CCCn2nccc21 (stereo not drawn) [Compound 39] |  | 36 |  |
| CC1(C)Cc2nc(N)sc2CN1C(=O)c1ncc(N2CCC3(CC2)Cc2ccccc2C3N)nc1N (stereo not drawn) [Compound 69] | 49 |  |  |
| Nc1nc(N2CCC3(CC2)Cc2sc(Cl)nc2C3N)cnc1C(=O)N1CCCn2nccc21 (stereo not drawn) [Compound 25] |  | 15 |  |
| CC1(C)CN(C(=O)c2ncc(N3CCC4(CC3)Cc3ccccc3C4N)nc2N)c2cccnc21 (stereo not drawn) [Compound 36] |  | 18 |  |
| [2H]C1([2H])CN(C(=O)c2ncc(N3CCC4(CC3)Cc3ccc(C)cc3C4N)nc2N)Cc2sc(N)nc21 (stereo not drawn) [Compound 71] | 16 |  |  |
| CC1CN(C(=O)c2ncc(N3CCC4(CC3)Cc3ccccc3C4N)nc2N)c2cccnc21 (stereo not drawn) [Compound 57] |  | 6 |  |
| Cc1ccc2c(c1)C(N)C1(CCN(c3cnc(C(=O)N4Cc5sc(N)nc5C(F)(F)C4)c(N)n3)CC1)C2 (stereo not drawn) [Compound 72] | 12 |  |  |
| Cc1nc(N2CCC3(CC2)Cc2ccccc2C3N)c(CO)nc1C(=O)N1CCc2nc(N)ccc21 (stereo not drawn) [Compound 111] |  | 15 |  |
| Cc1nc(N2CCC3(CC2)Cc2ccccc2C3N)c(C(N)=O)nc1C(=O)N1CCCn2nccc21 (stereo not drawn) [Compound 44] |  | 25 |  |
